Source: patent US12390455B2, “EZH1/2 dual inhibitor-containing pharmaceutical composition to be used as a combination drug” (DAIICHI SANKYO COMPANY, LIMITED, priority 2018, dated 2025)

Tests used:
Experiment in all cases: Cell growth inhibitory activity, Compound A alone and combined with a second medical agent (CellTiter-Glo)
KARPAS-422 = type: cell-based, human; settings: KARPAS-422, DLBCL (GCB), EZH2 MT (Y641N); 7 days culture then 3 days in assay plate
Protocol: (§1) Cell strains listed in Table 1 and Table 2 were seeded in cell culture plates (for example, 6-well culture plates). DMSO solutions of Compound A diluted to different concentrations or DMSO alone were added such that the concentration of the solvent was 0.1%. The cells were cultured for 7 days. During the culturing, at intervals of about 3 days or 4 days depending on cell proliferation, subculturing was appropriately carried out. In the subculturing, DMSO solutions of Compound A diluted to different concentrations or DMSO alone were added to fresh medium at the same concentration as in initiation of the study. […]
(§2) During the culturing period, the culture conditions were 37° C. and 5% CO2. […] Thereafter, the amount of light emitted from each of the wells was measured by a plate reader (EnVision, PerkinElmer Co., Ltd.). Based on the luminescence of the sample addition group (TS) and the DMSO addition group (CS) for each treatment condition measured on the day of seeding; and the luminescence of the sample addition group (T) and the DMSO addition group (C) for each treatment condition measured on the day of evaluation, the cell growth inhibition rate was calculated in accordance with the following expression: Cell growth inhibition rate %={1−(T−TS)/(C−CS)}×100 […]

MV-4-11 = type: cell-based, human; settings: MV-4-11, AML, MLL-AF4, FLT3-ITD; 7 days culture then 3 days in assay plate
Protocol: as §1, §2

DB = type: cell-based; settings: DLBCL (GCB), EZH2 MT (Y641N), 7 days culture then 3 days in assay plate
Protocol: (§3) Cell strains listed in Table 1 and Table 2 were seeded in cell culture plates (for example, 6-well culture plates). DMSO solutions of Compound A diluted to different concentrations or DMSO alone were added such that the concentration of the solvent was 0.1%. The cells were cultured for 7 days. During the culturing, at intervals of about 3 days or 4 days depending on cell proliferation, subculturing was appropriately carried out. In the subculturing, DMSO solutions of Compound A diluted to different concentrations or DMSO alone were added to fresh medium at the same concentration as in initiation of the study.
(§4) The cell strains cultured in the above conditions were seeded in 96-well assay plates and the cells were cultured under a combination of the following conditions: • (i) DMSO solutions of Compound A diluted to different concentrations or DMSO alone were added such that the concentration of the solvent was 0.1%, and • (ii) DMSO solutions of a second medical agent or DMSO alone (if a preparation of a second medical agent was used, the preparation of the second medical agent was diluted with saline and used, or saline alone was used) was added such that the concentration of the solvent was 0.1%.
(§5) During the culturing period, the culture conditions were 37° C. and 5% CO2. On the day when the cells were seeded in a 96-well assay plate (day of seeding) and 3 days later (day of evaluation), a reaction was carried out using CellTiter-Glo 2.0 Assay reagent (Promega KK., #G9241) in accordance with the manual attached thereto. Thereafter, the amount of light emitted from each of the wells was measured by a plate reader (EnVision, PerkinElmer Co., Ltd.). Based on the luminescence of the sample addition group (TS) and the DMSO addition group (CS) for each treatment condition measured on the day of seeding; and the luminescence of the sample addition group (T) and the DMSO addition group (C) for each treatment condition measured on the day of evaluation, the cell growth inhibition rate was calculated in accordance with the following expression: Cell growth inhibition rate %={1−(T−TS)/(C−CS)}×100
(§6) Note that, if the number of cells of a sample addition group on the day of evaluation was lower than that of the day of seeding (T<TS), the cell-killing effect was calculated in accordance with the following expression: Cell-killing rate %=(T−TS)/TS×(−100)
(§7) The cell growth inhibition rate and cell killing rate obtained by calculation were fitted to the Sigmoid Emax model to calculate 100% cell growth inhibitory concentration of each of Compound A alone, a second medical agent alone, and Compound A-second medical agent combinations at different concentrations.
(§8) Based on the 100% cell growth inhibitory concentrations (Compound A alone: D1, second medical agent alone: D2, Compound A when used in combination: d1, second medical agent when used in combination: d2) calculated, the combination index (CI) was calculated in accordance with the following expression: CI=d1/D1+d2/D2 Determination was based on the criteria: if CI<1, a synergetic effect is present; if CI=1, an additive effect is present; and if CI>1, an antagonist effect is present (refer to Adv. Enzyme Regul. 1984, p. 2227-55).

DOHH-2 = type: cell-based; settings: DOHH-2, DLBCL (GCB), EZH2 WT; 7 days culture then 3 days in assay plate
Protocol: as §3, §4, §5, §6, §7, §8

GRANTA-519 = type: cell-based; settings: GRANTA-519, MCL, EZH2 WT; 7 days culture then 3 days in assay plate
Protocol: as §3, §4, §5, §6, §7, §8

JeKo-1 = type: cell-based; settings: JeKo-1, MCL, EZH2 WT; 7 days culture then 3 days in assay plate
Protocol: as §3, §4, §5, §6, §7, §8

MOLM13 = type: cell-based; settings: MOLM13, AML, MLL-AF9, FLT3-ITD; 7 days culture then 3 days in assay plate
Protocol: as §3, §4, §5, §6, §7, §8

MOLM14 = type: cell-based; settings: MOLM14, AML, MLL-AF9, FLT3-ITD; 7 days culture then 3 days in assay plate
Protocol: as §3, §4, §5, §6, §7, §8

OCI-AML2 = type: cell-based; settings: OCI-AML2, AML, MLL-AF6, DNMT3Amt, FLT3-ITD; 7 days culture then 3 days in assay plate
Protocol: as §3, §4, §5, §6, §7, §8

OCI-AML3 = type: cell-based; settings: OCI-AML3, AML, NPM1mt, DNMT3Amt; 7 days culture then 3 days in assay plate
Protocol: as §3, §4, §5, §6, §7, §8

OCI-AML5 = type: cell-based; settings: OCI-AML5, AML; 7 days culture then 3 days in assay plate
Protocol: as §3, §4, §5, §6, §7, §8

OCI-LY19 = type: cell-based; settings: OCI-LY19, DLBCL (GCB), EZH2 WT; 7 days culture then 3 days in assay plate
Protocol: as §3, §4, §5, §6, §7, §8

OCI-LY3 = type: cell-based; settings: OCI-LY3, DLBCL (non-GCB), EZH2 WT; 7 days culture then 3 days in assay plate
Protocol: as §3, §4, §5, §6, §7, §8

OCI-LY7 = type: cell-based; settings: OCI-LY7, DLBCL (GCB), EZH2 WT; 7 days culture then 3 days in assay plate
Protocol: as §3, §4, §5, §6, §7, §8

REC-1 = type: cell-based; settings: REC-1, MCL, EZH2 WT; 7 days culture then 3 days in assay plate
Protocol: as §3, §4, §5, §6, §7, §8

SU-DHL-2 = type: cell-based; settings: SU-DHL-2, DLBCL (non-GCB), EZH2 WT; 7 days culture then 3 days in assay plate
Protocol: as §3, §4, §5, §6, §7, §8

## Cc1cc(C)c(CNC(=O)c2cc(Cl)c3c(c2C)O[C@@](C)([C@H]2CC[C@H](N(C)C)CC2)O3)c(=O)[nH]1 [Compound A, (2R)-7-chloro-2-[trans-4-(dimethylamino)cyclohexyl]-N-[(4,6-dimethyl-2-oxo-1,2-dihydropyridin-3-yl)methyl]-2,4-dimethyl-1,3-benzodioxol-5-carboxamide p-toluenesulfonate]
KARPAS-422
  Cpd A GI100 (100% cell growth inhibitory concentration): 5.7 nM
MV-4-11
  Cpd A GI100 (100% cell growth inhibitory concentration): >100 nM
DB
  Cpd A GI100 (100% cell growth inhibitory concentration): >100 nM
DOHH-2
  Cpd A GI100 (100% cell growth inhibitory concentration): 17 nM
GRANTA-519
  Cpd A GI100 (100% cell growth inhibitory concentration): 53 nM
JeKo-1
  Cpd A GI100 (100% cell growth inhibitory concentration): 8.1 nM
MOLM13
  Cpd A GI100 (100% cell growth inhibitory concentration): 97 nM
MOLM14
  Cpd A GI100 (100% cell growth inhibitory concentration): >1000 nM
OCI-AML2
  Cpd A GI100 (100% cell growth inhibitory concentration): 647 nM
OCI-AML3
  Cpd A GI100 (100% cell growth inhibitory concentration): >1000 nM
OCI-AML5
  Cpd A GI100 (100% cell growth inhibitory concentration): >5 µM
OCI-LY19
  Cpd A GI100 (100% cell growth inhibitory concentration): >1000 nM
OCI-LY3
  Cpd A GI100 (100% cell growth inhibitory concentration): >1000 nM
OCI-LY7
  Cpd A GI100 (100% cell growth inhibitory concentration): 90 nM
REC-1
  Cpd A GI100 (100% cell growth inhibitory concentration): 170 nM
SU-DHL-2
  Cpd A GI100 (100% cell growth inhibitory concentration): 4.9 nM
